According to US8828678B2, “Self-immolative probes for enzyme activity detection” (Enzo Life Sciences, Inc., priority 2010, dated 2014):

Experiments:
[1] = test system: HeLa cells; experiment: Combined detection of hypoxia and redox status in live cells by fluorescent microscopy; format: cell-based, human; settings: 5 μM; all four hypoxic samples (anoxia, CoCl2, DFO, DMOG)
Method: HeLa and U-2 OS cells were cultured as described in Example 7. Stock solutions of CD-1 and CD-5 and various hypoxia inducers were prepared and stored as described in Examples 7 and 8. Additionally, 5 mM stock solutions (5000×) of 2′,7′-dichloro-fluorescein diacetate (DCFDA, an indicator of global ROS generation) and dihydroethidium (DHE, specific indicator of superoxide generation) were made in anhydrous DMF. DMSO was avoided, since this solvent is a hydroxyl radical scavenger and its presence may affect ROS/RNS production in cellular systems. The following stocks of ROS inducers were prepared in DMF: 10 mM pyocyanin (general ROS generating compound, 100×), 20 mM antimycin A (general ROS inducer, 400×), 50 mM pyrogallol (a superoxide radical generator, 1000×), 1 mM t-butyl hydroperoxide (TBHP, peroxide radical inducer, 10,000×). ROS probes and inducers were aliquoted and stored at −80° C.
The day before the experiment, the cells were seeded on 4-well microscope slides (Cel-Line™ Brand, Portsmouth, N.H.) at a density 1×10^4 cells/well (2×10^4 cells/cm^2). On the day of the experiment, the cells were preloaded with both hypoxia probe (5 μM final concentration in cell culture medium) and ROS detecting reagent with suitable spectral characteristics. Two ROS-detecting probes, DCFDA and DHE, were used in a pilot experiment in conjunction with hypoxia self-immolative probes. The hydrolyzed product of DCFDA, DCFH, is considered to be a general indicator of ROS, reacting with H2O2 (in the presence of peroxidases), ONOO^−, lipid hydroperoxides, and hydroxyl radicals. The oxidized product can be detected by strong fluorescence emission at around 525 nm when excited at around 488 nm. Because H2O2 is a secondary product of O2.^−, DCFH fluorescence has been used to implicate O2.^− production. The direct reaction of DHE with O2.^− yields a very specific fluorescent product, requiring no conversion to H2O2. The product of the DHE reaction with O2.^− fluoresces strongly at around 600 nm when excited at 500-530 nm.
Tested pairs of the probes were as follows: CD-5 with DCFDA or DHE, and CD-1 with DHE. A hypoxic state was induced in the cells as described in Example 7. Control slides were singly-stained with hypoxia or ROS-detecting probes only. Additional slides were treated with different general and specific ROS inducers and stained with ROS-detecting probes to control ROS staining. Post-treatment, the slides were washed twice with PBS, coverslipped and visualized using an Olympus BX-51 fluorescence microscope and a DAPI filter set (350 ex/470em) for CD-5, an FITC filter set (490ex/525em) for CD-1 or for total ROS detection reagent, and an orange filter set (550ex/620em) for HE.

[2] = test system: Jurkat cells; experiment: Combined detection of hypoxia and superoxide in live cells by flow cytometry; format: cell-based, human; settings: CD-1 5 μM in combination with superoxide detection reagent, flow cytometry
Method: HeLa, U-2 OS, and Jurkat cell lines were cultured as described in Examples 7 and 9. Stock solutions of the probes and inhibitors were prepared as described in Examples 7 and 10.
The day before the experiment, HeLa and U-2 OS cells were seeded in 6-well tissue culture plates at a density of 5×10^5 cells/well. Jurkat cells were collected in logarithmic phase of growth and aliquoted at a density of 5×10^5 cells/sample. On the day of the experiment, the cells were preloaded with either hypoxia or ROS-detecting probes only or with the combination of hypoxia and ROS-detecting probes with compatible spectral characteristics. Samples stained with single hypoxia probes or with two ROS-detecting probes were made to validate data obtained with the combination of hypoxia and redox probes. The probes used in the experiment and their final concentrations in cell culture medium were as follows: CD-1(5 μM) and CD-6 (1 μM), DCFDA, peroxide/peroxynitrite/hydroxyl detection probe and HE, specific superoxide detection reagent (1 μM for both redox probes). Hypoxia was induced in the cells as described in Example 7. Additionally, cells were treated with different general and specific ROS inducers and stained with ROS-detecting probes to control ROS production and staining. Post-treatment, the adherent cells (HeLa and U-2 OS) were collected by trypsinization, re-suspended in 0.5 mL of fresh PBS and analyzed using flow cytometry. Jurkat cells were analyzed without washing. Flow cytometry experiments were performed using an FACS Calibur benchtop flow cytometer (BD Biosciences) equipped with a blue (488 nm) laser, and the fluorescence was recorded in the FITC (530/30 filter), PE (585/42 filter) and PerCP (670 LP filter) channels. Data were collected uncompensated, also compensation corrections were performed using unstained cells, and cells stained with each single dye separately (CD-1, CD-6, DCFDA or HE). To quantify data, quadrant gates were set using untreated samples.

O=C(Nc1ccc2c(c1)Oc1cc(NC(=O)N3CCOCC3)ccc1C21OC(=O)c2ccccc21)OCc1ccc([N+](=O)[O-])cc1 (centres unmarked) [CD-1]
hypoxia probe fluorescent signal in hypoxic HeLa cells, multiplexed with ROS dyes [1]: bright fluorescent signal
population of green positive cells in hypoxia-induced Jurkat samples [2]: increased population of green positive cells
